# Data: patent publication US20190008957A1, “COMBINATION THERAPIES INCLUDING INHIBITORS OF THE EXTRACELLULAR DOMAIN OF E-CADHERIN” (The Research Foundation for The State of New York, priority 2012, published 2019)
# Columns and labels:
# [1] = tested on: MCF-7, SKBR3 and MDA-MB-231 breast cancer cell lines; assay: BrdU proliferation in breast cancer cell lines; format: cell-based, human
# Description: (§1) For BrdU staining, cells were incubated with 10 μM BrdU for 2 h prior to fixation and processed for immunofluorescence microscopy as previously described (Brouxhon et al., Cancer Res. 67:7654-64, 2007). For BrdU analyses, cells were counted from 6 low-power fields (×100) per section. BrdU incorporation was also analyzed by a cell proliferation ELISA 5-bromo-2′-deoxyuridine (BrdU) (colorimetric) kit (Roche, Stockholm, Sweden), according to the manufacturer's instructions. Migration and invasion of cells were measured using 8.0 μm pore BD BioCoat Control Insert 24-well plates (no. 354578) and Matrigel Invasion Chamber 24-well Plates (no. 354480), respectively (BD Bioscience). Cells were collected, washed, and 2×10^5 cells were plated in 0.4% FBS medium in the top chamber, with 0-20 μg/mL of rhEcad/Fc in the bottom chamber. After 22 h, cells on the top were removed using a cotton swab. Migrated or invaded cells on the lower surface were fixed with methanol, stained with 0.5% crystal violet, examined by bright field microscopy and photographed. Migration or invasion was quantitated by counting migrated or invaded cells in at least ten random high-power fields per insert and expressed as averages. Results are presented as fold change of the number of migrated/invaded cells to the untreated controls in triplicate experiments.
# [2] = tested on: MEK1/2, ERK1/2, PI3K, Akt, mTOR, p70S6K, 4EBP1; assay: Western blot of downstream MAPK-PI3K/Akt/mTOR signaling in SCC cell lines; format: cell-based
# Description: (§3) After brief sonication, lysates were cleared by centrifugation at 4° C. […] After transfer to nitrocellulose membrane and blocking with 1% BSA, samples were probed with primary antibodies. Western blot images were captured using HP Scanjet G4050 and analyzed relative to G3PDH or actin using NIH Scion Image.
# (§4) Antibodies against total HER1 and HER 4 and phosphorylated HER1-4, pPI3K, pAkt, pmTOR, p4E-BP1, pRaptor and pp70S6K obtained from Cell Signaling Technologies. Monoclonal antibodies to HER3 and HER4 were obtained from Thermo Scientific. Polyclonal antibody to the extracellular domain of E-cadherin and monoclonal antibody to α-actin were obtained from Santa Cruz Biotechnology. Monoclonal antibody to the extracellular domain of E-cadherin (DECMA-1) and to His Tag were obtained from Sigma and Abcam, respectively. Monoclonal antibody to G3PDH, ubiquitin and rat IgG1 were obtained from Ambion, Zymed and Southern Biotechnology, respectively.
# [3] = tested on: HER2 overexpressing BT474 cells; settings: cited from earlier work
# [4] = tested on: oropharyngeal FADU and skin SCC (PAM212, CC4A, SCC13 and SCC12b) cell lines; assay: Proliferation in oropharyngeal and skin SCC cell lines; format: cell-based
# Description: as §1
# survivin = settings: HER2-positive tumors from patients; cited from earlier work
# [5] = tested on: skin (SCC12b, SCC13, PAM212 and CC4A) and the head & neck FADU cell line; assay: Matrigel invasion of SCC cells; format: cell-based
# [6] = tested on: skin (PAM212, CC4A, SCC12b, SCC13) and oropharyngeal (FADU) cells; assay: Transwell migration of SCC cells; format: cell-based
# Description: as §1
# HER1, HER2, IGF-1R = assay: Western blot of receptor phosphorylation in skin and oropharyngeal SCC cell lines; format: cell-based; settings: PAM212 cells
# Description: as §3, §4
# MMP-2 and MMP-9 = assay: MMP-9 ELISA and gelatin zymography of conditioned media; format: cell-based, mouse; settings: PAM212 cells; inhibitors either alone or in combination
# Description: Conditioned media from control or sEcad treated cells were concentrated 10-fold using Centricon devices (Millipore; Bedford, Mass.) according to the manufacturer's instructions and applied to SDS-PAGE gels containing gelatin (0.1% w/v). Gels were washed twice in renaturing buffer (Invitrogen) and incubated at 37° C. for 24 h in developing buffer (Invitrogen). Gels were stained with Coomassie blue and destained with methanol:acetic acid (50:10). Zymogram is representative of triplicate experiments.
# Conditioned media from human and mouse cells were analyzed for MMP-9 using human and mouse […] Quantikine ELISA Kits and mouse MMP-9 ELISA kit (R&D Systems, Minneapolis, Minn.), according to the manufacturer's specifications, respectively. For measuring mouse MMP-9, serum-free medium was added to cell cultures and cells were exposed to increasing concentrations of sEcad (rmEcad/Fc; R&D Systems) for 24 hours. The culture media were collected and concentrated using Centrifugal Ultra Filters (Millipore, Billerica, Mass.) and MMP-9 levels were measured by ELISA. Each experiment was performed in triplicate.
# HER1-4 [7] = assay: Immunoprecipitation of sEcad with HER receptors in breast cancer cells; format: binding, human
# Description: (§2) The association of sEcad with these RTK was also confirmed by in vitro studies. Specifically, in cell culture systems, extracts from sEcad (rhEcad/Fc:His tagged) treated E-cadherin positive MCF-7 and E-cadherin negative SKBR3 and MDA-MB-231 breast cancer cells were immunoprecipitated with HER1-4-specific antibodies and analyzed by western blotting with a His-tagged-specific antibody. Here, we detected HER1-4-sEcad, HER1-2-sEcad and HER1-sEcad interactions in MCF, SKBR3 and MDA-MB-231 breast cancer cells, respectively. […] Because ligand binding to the HER family of receptors induces the formation of homo- and heterodimers, resulting in phosphorylation on specific tyrosine residues within the cytoplasmic domain (Yarden and Siliwkowski, Nature Reviews. 2:127-137, 2001), we next used western blot assays to examine whether sEcad promotes HER phosphorylation and downstream signaling.
# Immunoprecipitation assays were carried out by harvesting tissues or cells with immunoprecipitation lysis buffer (20 mM Tris-HCl, pH 7.5; 137 mM NaCl; 100 mM NaF; 10% glycerol (vol/vol); 1% (vol/vol) Nonidet P-40; 1 mM PMSF and protease inhibitor cocktail (Sigma)). After brief sonication, lysates were cleared by centrifugation at 4° C. […] The immunocomplexes were washed three times, boiled in sample buffer (60 mM Tris-Cl, pH 6.8; 2% SDS (vol/vol); 10% glycerol (vol/vol); 5% […] (vol/vol); and 0.01% bromophenol blue (vol/vol), and loaded on SDS-PAGE for protein analysis. Protein extraction in cells was performed on ice using total protein extraction buffer: 20 mM Tris pH 7.5, 137 mM NaCl, 100 mM NaF, 10% glycerol, 1% NP40, 1 mM PMSF and protease inhibitor cocktail (Sigma). For normal and tumor tissues, sEcad was extracted in an aqueous solution (PBS) and not in the protein extraction buffer. Protein concentration was measured using a BCA Protein Assay Kit (Pierce). […] Western blot images were captured using HP Scanjet G4050 and analyzed relative to G3PDH or actin using NIH Scion Image.
# [8] = tested on: MDA-MB-231 and MCF-7 breast cancer cells; assay: Matrigel invasion of breast cancer cells; format: cell-based, human; settings: MCF-7 cells, 24 h, equimolar concentrations
# Description: as §1, with “After 22 h, cells on the top were removed using a cotton swab.” left out
# [9] = tested on: ERK1/2, PI3K/Akt, mTOR, p70S6K, 4EBP1; assay: Western blot of downstream MAPK-PI3K/Akt/mTOR signaling in breast cancer cell lines; format: cell-based, human
# Description: We speculated that this effect may be mediated by molecular abnormalities in signaling pathways that promote cell growth downstream of HERs. Specifically, the lipid kinase phosphoinositide-3-kinase (PI3K) and the protein-serine/threonine kinases Akt, and mTOR signaling pathways are important mediators of HER receptor signaling and are causally involved in breast and other malignancies (Schmelzle and Hall, Cell 103:253-262, 2000). […] As the p70S6 kinase and eIF4E binding protein 1 (4EBP1) are among the most well characterized targets of mTOR (Schmelzle and Hall, Cell 103:253-262, 2000), we next studied the phosphorylation of p70S6K at Thr-389 and 4EBP1 at Thr-37 by western blotting.
# Immunoprecipitation assays were carried out by harvesting tissues or cells with immunoprecipitation lysis buffer (20 mM Tris-HCl, pH 7.5; 137 mM NaCl; 100 mM NaF; 10% glycerol (vol/vol); 1% (vol/vol) Nonidet P-40; 1 mM PMSF and protease inhibitor cocktail (Sigma)). After brief sonication, lysates were cleared by centrifugation at 4° C. Supernatants were precleared and incubated with EGFR/HER1, HER2, HER3, HER4 or E-cadherin ectodomain-specific antibodies for 4 h and protein A/G plus agarose beads (Santa Cruz, sc-2003) for 2 h at 4° C. The immunocomplexes were washed three times, boiled in sample buffer (60 mM Tris-Cl, pH 6.8; 2% SDS (vol/vol); 10% glycerol (vol/vol); 5% […] (vol/vol); and 0.01% bromophenol blue (vol/vol), and loaded on SDS-PAGE for protein analysis. Protein extraction in cells was performed on ice using total protein extraction buffer: 20 mM Tris pH 7.5, 137 mM NaCl, 100 mM NaF, 10% glycerol, 1% NP40, 1 mM PMSF and protease inhibitor cocktail (Sigma). For normal and tumor tissues, sEcad was extracted in an aqueous solution (PBS) and not in the protein extraction buffer. Protein concentration was measured using a BCA Protein Assay Kit (Pierce). […] Western blot images were captured using HP Scanjet G4050 and analyzed relative to G3PDH or actin using NIH Scion Image. […]
# [10] = tested on: breast (MCF-7, SKBR3) cells; assay: Transwell migration of breast cancer cells; format: cell-based, human; settings: MCF-7 cells, 24 h, equimolar concentrations
# Description: as §1, with “After 22 h, cells on the top were removed using a cotton swab.” left out
# HER1-4 [11] = assay: Western blot of HER phosphorylation in breast cancer cells; format: cell-based, human; settings: MCF-7 and SKBR3 cells, 26 h after stimulation
# Description: as §2
# Immunoprecipitation assays were carried out by harvesting tissues or cells with immunoprecipitation lysis buffer (20 mM Tris-HCl, pH 7.5; 137 mM NaCl; 100 mM NaF; 10% glycerol (vol/vol); 1% (vol/vol) Nonidet P-40; 1 mM PMSF and protease inhibitor cocktail (Sigma)). After brief sonication, lysates were cleared by centrifugation at 4° C. […] Western blot images were captured using HP Scanjet G4050 and analyzed relative to G3PDH or actin using NIH Scion Image. […]
# [12] = PAM212 skin SCC cells, HER inhibitors
# [13] = PAM212 cells, PI3K or MEK inhibitor 20 μM
compound,measurement,setting,value
CS(=O)(=O)CCNCc1ccc(-c2ccc3ncnc(Nc4ccc(OCc5cccc(F)c5)c(Cl)c4)c3c2)o1 [Lapatinib],basal and sEcad-induced BrdU incorporation,"[1]; breast cancer cells, Canertinib 1 μM, Lapatinib 5 μM, Gefitinib 5 μM",significantly reduced both basal and sEcad-induced BrdU incorporation
same,sEcad-induced phosphorylation of 4EBP1,[2]; PAM212 cells,minimal changes
same,"sEcad-induced phosphorylation of ERK1/2, Akt and p70S6K",[2]; PAM212 cells,significantly down-regulated
same,sEcad-induced phosphorylation of PI3K,[2]; PAM212 cells,minimal changes
same,apoptosis,[3],induced apoptosis
same,survivin expression,[3],markedly reduced survivin expression
same,sEcad-induced proliferation,[4]; [12],"effectively inhibited sEcad-induced proliferation, migration and invasion"
same,survivin expression levels in tumors,survivin,marked inhibition of survivin expression levels
same,sEcad-induced invasion,[5]; [12],"effectively inhibited sEcad-induced proliferation, migration and invasion"
same,sEcad-induced migration,[6]; [12],"effectively inhibited sEcad-induced proliferation, migration and invasion"
same,sEcad-induced HER1 phosphorylation,"HER1, HER2, IGF-1R",significantly down-regulated
same,sEcad-induced HER2 phosphorylation (pHER2),"HER1, HER2, IGF-1R",minimal changes
same,phospho-IGF-1R levels,"HER1, HER2, IGF-1R; in the presence of sEcad, compared to corresponding controls",did not alter
COc1cccc(-c2cc(=O)c3ccccc3o2)c1N [PD98059],Akt phosphorylation by sEcad in the presence of the inhibitor,"[2]; PAM212 cells, inhibitor 20 μM",enhanced
same,ERK1/2 phosphorylation,"[2]; PAM212 cells, inhibitor 20 μM",decreased ERK1/2 phosphorylation
same,mTOR/p70S6K/4EBP1 phosphorylation,"[2]; PAM212 cells, inhibitor 20 μM, even in the absence of rmEcad/Fc",increased
same,sEcad-induced PAM212 proliferation,"[4]; PAM212 cells, inhibitor 20 μM",less significant effects
same,sEcad-induced invasion,[5]; [13],blocked
same,sEcad-induced migration,[6]; [13],blocked
same,sEcad-induced activation of MMP-2 and MMP-9,MMP-2 and MMP-9,significantly inhibited sEcad-induced activation of MMP-2 and MMP-9
"rhEcad/Fc: Recombinant human E-cadherin Fc chimera; extracellular domain residues 155-707 fused to human IgG1 Fc, 6x histidine-tagged",receptors interacting with sEcad,HER1-4 [7]; MCF-7 cells (E-cadherin positive),HER1-4-sEcad
same,receptors interacting with sEcad,HER1-4 [7]; MDA-MB-231 cells (E-cadherin negative),HER1-sEcad
same,receptors interacting with sEcad,HER1-4 [7]; SKBR3 cells (E-cadherin negative),HER1-2-sEcad
same,invasion,[8],"significantly increased proliferation, migration and invasion"
same,phosphorylated p70S6K (Thr-389) and 4EBP1 (Thr-37) levels,"[9]; MCF-7, SKBR3 cells versus untreated controls",higher
same,"ERK1/2, PI3K/Akt and mTOR activation",[9]; MCF-7 and SKBR3 cells,"activation of ERK1/2, PI3K/Akt and mTOR"
same,Akt activation,[9]; MDA-MB-231 TNBC cells,activation
same,BrdU incorporation,"[1]; 10 and 20 μg/mL, MCF-7, SKBR3 and MDA-MB-231",significantly increased
same,proliferation,"[1]; MCF-7 cells, 24 h, equimolar concentrations","significantly increased proliferation, migration and invasion"
same,phosphorylated p70S6K (Thr-389) and 4EBP1 (Thr-37) levels,"[2]; PAM212, CC4A cells versus untreated controls",higher
same,migration,[10],"significantly increased proliferation, migration and invasion"
same,HER1-4 phosphorylation,HER1-4 [11],notably increased
